Source: patent US20120016019A1, “PHARMACEUTICAL COMPOSITION FOR TREATING OR PREVENTING CANCER” (priority 2010, published 2012)
Where “and” joins values, the source holds several entries; their conditions need not be identical. Identical values can stand only once.

Legend:
Assay type in all cases: cell-based
[1] = test system: MCF-7; assay: Cell counts, MCF-7; conditions: for cell counts: single wells
Protocol: (§4) Cancer cell lines HCC 1419, MCF-7, MDA-MB-468, SKBR3, PC3, HT1299, Saos-2, C-6, AsPc, MDA-MB-231, RKO, HeLa and TT, and normal cell lines HME 50 HT, BJ and CCD-1074sk were tested for changes in metabolism (XTT assay) and cell death (cell counts).
(§5) Cells were plated into 48-well Corning CellBind™ plates at densities of 20,000 cells for normal cells and 10,000˜20,000 cells for cancer cells. 24 to 48 h after plating, cells were treated with the composition according to the invention at concentrations of 4.5e-2M. The first time point treated with the composition of the invention is 0 h. At 3 days after the first treatment with the composition of the invention, medium was changed and the composition of the invention at the same concentrations were added to the cultured cells.
Cells were harvested using Trypsin-EDTA at the designated time points. […] Two 48-well plates were used per cell line, and they were measured at 0 h, 12 h, 24 h, 48 h, 4 d and 7 d, respectively.
In the 1st plate, cells were treated with the composition according to the invention and medium was changed at 0 h and 3 d. […] As a result, LC-50 curves were generated in the 1st week.

[2] = test system: MDA-MB-231; assay: Cell counts, MDA-MB-231
Protocol: (§1) As a result, LC-50 curves were generated in the 1st week.
(§2) In the 2nd plate, 7 d of the 1st week (LC-50) is the same as 0 h of the 2nd week (recovery).
(§3) At 0 h of the 2nd week, medium was exchanged with untreated medium for the remainder of the experiment. The untreated controls were not measured in the 2nd week (recovery) due to overconfluence by the end of the 1st week. As a result, Recovery curves were generated in the 2nd week.

[3] = test system: RKO; assay: Cell counts, RKO
Protocol: as §1, §2, §3

[4] = test system: TT; assay: XTT cell viability assay, TT; conditions: for The absorbance, group - Blank: mean minus blank; for The absorbance: single value
Protocol: as §4, §5
Cells were seeded in a 96-well tissue culture plate at a density of 10,000 cells for normal cells and 5,000 cells for cancer cells. After incubation period, the formazan dye formed was quantitated using an ELISA reader. The optimal wavelength used in experiments was 500 nm, and it was measured at 0 h, 12 h, 24 h, 48 h, 4 d and 7 d, respectively. The obtained values were generated using the software SoftMax Pro 4.8.
The cell viability was calculated according to the manufacturer's instructions as follows (the term “blank” means XTT in medium only):
Cellular cytotoxicity was calculated according to the manufacturer's instructions as follows:

CC(=O)O[C@H]1C(=O)[C@@]2(C)[C@H]([C@H](OC(=O)c3ccccc3)[C@]3(O)C[C@H](OC(=O)[C@H](O)[C@@H](NC(=O)c4ccccc4)c4ccccc4)C(C)=C1C3(C)C)[C@]1(OC(C)=O)CO[C@@H]1C[C@@H]2O [Taxol]
cell counts, Mean value ([1]; 1st week (LC50), 0 h): 55333
cell counts ([1]; 1st week (LC50), 0 h): 39000 and 67000 and 60000
cell counts, Mean value ([1]; 1st week (LC50), 24 h): 43667
cell counts ([1]; 1st week (LC50), 24 h): 39000 and 54000 and 38000
cell counts, Mean value ([1]; 1st week (LC50), 48 h): 23333
cell counts ([1]; 1st week (LC50), 48 h): 21000 and 19000 and 30000
cell counts, Mean value ([1]; 1st week (LC50), 4 d): 21667
cell counts, Mean value ([1]; 1st week (LC50), 7 d): 4333
cell counts ([1]; 1st week (LC50), 7 d): 4000 and 5000
cell counts, Mean value ([1]; 2nd week (recovery), 0 h): 2032
cell counts ([1]; 2nd week (recovery), 0 h): 2361 and 1648 and 2087
cell counts, Mean value ([1]; 2nd week (recovery), 24 h): 646
cell counts ([1]; 2nd week (recovery), 24 h): 807 and 728
cell counts, Mean value ([1]; 2nd week (recovery), 48 h): 2084
cell counts ([1]; 2nd week (recovery), 48 h): 1726 and 2010 and 2517
cell counts, Mean value ([1]; 2nd week (recovery), 4 d): 2013
cell counts ([1]; 2nd week (recovery), 4 d): 2135 and 1892 and 2011
cell counts, Mean value ([1]; 2nd week (recovery), 7 d): 1772
cell counts ([1]; 2nd week (recovery), 7 d): 2098 and 1693 and 1524
cell counts ([2]; 1st week (LC50), 0 h): 47000 and 42000 and 53000
cell counts, Mean value ([2]; 1st week (LC50), 0 h): 47333
cell counts ([2]; 1st week (LC50), 24 h): 32000 and 39000 and 22000
cell counts, Mean value ([2]; 1st week (LC50), 24 h): 31000
cell counts ([2]; 1st week (LC50), 48 h): 13000 and 16000 and 23000
cell counts, Mean value ([2]; 1st week (LC50), 48 h): 17333
cell counts ([2]; 1st week (LC50), 4 d): 19500 and 24000 and 26500
cell counts, Mean value ([2]; 1st week (LC50), 4 d): 23333
cell counts, Mean value ([2]; 1st week (LC50), 7 d): 9667
growth of the cell population ([2]; 2nd week (recovery)): begins to grow and shows the sign of recovering
cell counts ([2]; 2nd week (recovery), 0 h): 12500 and 17500 and 22000
cell counts, Mean value ([2]; 2nd week (recovery), 0 h): 17333
cell counts ([2]; 2nd week (recovery), 24 h): 16000 and 32000 and 24000
cell counts, Mean value ([2]; 2nd week (recovery), 24 h): 24000
cell counts, Mean value ([2]; 2nd week (recovery), 48 h): 24500
cell counts, Mean value ([2]; 2nd week (recovery), 4 d): 22167
cell counts, Mean value ([2]; 2nd week (recovery), 7 d): 32000
cell counts ([3]; 1st week (LC50), 0 h): 48000 and 49000 and 54000
cell counts, Mean value ([3]; 1st week (LC50), 0 h): 50333
cell counts ([3]; 1st week (LC50), 24 h): 101600 and 98000 and 99800
cell counts, Mean value ([3]; 1st week (LC50), 24 h): 99800
cell counts, Mean value ([3]; 1st week (LC50), 48 h): 78733
cell counts ([3]; 1st week (LC50), 4 d): 36000
cell counts, Mean value ([3]; 1st week (LC50), 4 d): 36000
cell counts ([3]; 1st week (LC50), 7 d): 38600 and 25400 and 22800
cell counts, Mean value ([3]; 1st week (LC50), 7 d): 28933
cell counts ([3]; 2nd week (recovery), 0 h): 57000 and 58000 and 53000
cell counts, Mean value ([3]; 2nd week (recovery), 0 h): 56000
cell counts ([3]; 2nd week (recovery), 24 h): 26000 and 31000 and 39000
cell counts, Mean value ([3]; 2nd week (recovery), 24 h): 32000
cell counts ([3]; 2nd week (recovery), 48 h): 35000 and 38000 and 30000
cell counts, Mean value ([3]; 2nd week (recovery), 48 h): 34333
cell counts ([3]; 2nd week (recovery), 4 d): 39000 and 31000 and 26000
cell counts, Mean value ([3]; 2nd week (recovery), 4 d): 32000
cell counts, Mean value ([3]; 2nd week (recovery), 7 d): 35000
The cytotoxicity ([4]; 1st week (LC50), 0 h): 0.6095
The viability ([4]; 1st week (LC50), 0 h): 0.3905
The absorbance, group - Blank ([4]; 1st week (LC50), 0 h): 0.1760
The absorbance, Mean value ([4]; 1st week (LC50), 0 h): 0.4394
The absorbance ([4]; 1st week (LC50), 0 h): 0.4452 and 0.4456
The cytotoxicity ([4]; 1st week (LC50), 12 h): −0.2604
The viability ([4]; 1st week (LC50), 12 h): 1.2604
The absorbance, group - Blank ([4]; 1st week (LC50), 12 h): 1.5590
The absorbance, Mean value ([4]; 1st week (LC50), 12 h): 1.8224
The absorbance ([4]; 1st week (LC50), 12 h): 1.512 and 1.5452
The cytotoxicity ([4]; 1st week (LC50), 24 h): −0.0831
The viability ([4]; 1st week (LC50), 24 h): 1.0831
The absorbance, group - Blank ([4]; 1st week (LC50), 24 h): 2.2745
The absorbance, Mean value ([4]; 1st week (LC50), 24 h): 2.5379
The cytotoxicity ([4]; 1st week (LC50), 48 h): 0.5671
The viability ([4]; 1st week (LC50), 48 h): 0.4329
The absorbance, group - Blank ([4]; 1st week (LC50), 48 h): 1.1834
The absorbance, Mean value ([4]; 1st week (LC50), 48 h): 1.4468
The absorbance ([4]; 1st week (LC50), 48 h): 1.6834 and 1.3166
The cytotoxicity ([4]; 1st week (LC50), 4 d): −0.3186
The viability ([4]; 1st week (LC50), 4 d): 1.3186
The absorbance, group - Blank ([4]; 1st week (LC50), 4 d): 1.9816
The cytotoxicity ([4]; 1st week (LC50), 7 d): 0.5080
The viability ([4]; 1st week (LC50), 7 d): 0.4920
The absorbance, group - Blank ([4]; 1st week (LC50), 7 d): 0.9498
The absorbance, Mean value ([4]; 1st week (LC50), 7 d): 1.2132
The absorbance ([4]; 1st week (LC50), 7 d): 1.2763
The cytotoxicity ([4]; 2nd week (recovery), 0 h): −3.3443
The viability ([4]; 2nd week (recovery), 0 h): 4.3443
The absorbance, group - Blank ([4]; 2nd week (recovery), 0 h): 1.9578
The absorbance, Mean value ([4]; 2nd week (recovery), 0 h): 2.2212
The cytotoxicity ([4]; 2nd week (recovery), 12 h): −0.1062
The viability ([4]; 2nd week (recovery), 12 h): 1.1062
The absorbance, group - Blank ([4]; 2nd week (recovery), 12 h): 2.3230
The absorbance, Mean value ([4]; 2nd week (recovery), 12 h): 2.5864
The cytotoxicity ([4]; 2nd week (recovery), 24 h): 0.5481
The viability ([4]; 2nd week (recovery), 24 h): 0.4519
The absorbance, group - Blank ([4]; 2nd week (recovery), 24 h): 1.2354
The absorbance, Mean value ([4]; 2nd week (recovery), 24 h): 1.4988
The cytotoxicity ([4]; 2nd week (recovery), 48 h): 0.6857
The viability ([4]; 2nd week (recovery), 48 h): 0.3143
The absorbance, group - Blank ([4]; 2nd week (recovery), 48 h): 0.4723
The absorbance, Mean value ([4]; 2nd week (recovery), 48 h): 0.7357
The cytotoxicity ([4]; 2nd week (recovery), 4 d): 0.8411
The viability ([4]; 2nd week (recovery), 4 d): 0.1589
The absorbance, group - Blank ([4]; 2nd week (recovery), 4 d): 0.3067
The absorbance, Mean value ([4]; 2nd week (recovery), 4 d): 0.5701
The absorbance ([4]; 2nd week (recovery), 4 d): 0.4887 and 0.7079 and 0.5136
The cytotoxicity ([4]; 2nd week (recovery), 7 d): −3.3443
The viability ([4]; 2nd week (recovery), 7 d): 4.3443
The absorbance, group - Blank ([4]; 2nd week (recovery), 7 d): 1.9578
The absorbance, Mean value ([4]; 2nd week (recovery), 7 d): 0.2634
The absorbance ([4]; 2nd week (recovery), 7 d): 0.2616 and 0.2542 and 0.2744
